Data taken from PubChem BioAssay AID2060503 (Molecular Pharmacology Branch, DTP, NCI, 2025).

Test system: 817829-284-R-J1-PDC complex spheroids, viability
Assay: Anticancer human tumor 817829-284-R-J1-PDC patient-derived colon adenocarcinoma cell line growth inhibition [GQUAD]
Conditions: second compound 0.1 µM; first compound 1 µM; hits give low values
Method in brief: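 Tumor cells were grown as complex spheroids with HUVEC endothelial cells and mesenchymal stem cells as stroma. G-quadruplex stabilizers were combined with targeted agents over half-log dilutions from near the clinical Cmax, or from 10 microM.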
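Further: spheroids exposed to agents for 7 days before readout; percent viability relative to DMSO vehicle control taken as 100%.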

Row | SMILES | viability, T/C
1 | CC(C)(O)C1CCC(Nc2ccc3ncc(-c4cccc(C(F)(F)F)c4)n3n2)CC1 (configuration not stated) + Cc1[nH]c2ccc(F)cc2c1-c1nc2c3cccnc3c3ncccc3c2[nH]1 | 51.9%
2 | Nc1ccn(C2OC(CO)C(O)C2(F)F)c(=O)n1 (configuration not stated) + Cc1[nH]c2ccc(F)cc2c1-c1nc2c3cccnc3c3ncccc3c2[nH]1 | 6.66%
3 | O=C(NO)c1cnc(N2CCN(S(=O)(=O)c3ccc4ccccc4c3)CC2)nc1 + Cc1[nH]c2ccc(F)cc2c1-c1nc2c3cccnc3c3ncccc3c2[nH]1 | 0.16%
4 | O=c1[nH]cc(F)c(=O)[nH]1 + Cc1[nH]c2ccc(F)cc2c1-c1nc2c3cccnc3c3ncccc3c2[nH]1 | 68.9%

Same assay, conditions: second compound 0.1 µM; first compound 3.16 µM; hits give low values

Row | SMILES | viability, T/C
5 | C#Cc1c(F)ccc2cc(O)cc(-c3ncc4c(N5CC6CCC(C5)N6)nc(OCC56CCCN5CC(F)C6)nc4c3F)c12 (configuration not stated) + Cc1[nH]c2ccc(F)cc2c1-c1nc2c3cccnc3c3ncccc3c2[nH]1 | 91.1%
6 | C=CCn1c(=O)c2cnc(Nc3ccc(N4CCN(C)CC4)cc3)nc2n1-c1cccc(C(C)(C)O)n1 + Cc1[nH]c2ccc(F)cc2c1-c1nc2c3cccnc3c3ncccc3c2[nH]1 | 6.25%
7 | CC(C)(O)C1CCC(Nc2ccc3ncc(-c4cccc(C(F)(F)F)c4)n3n2)CC1 (configuration not stated) + Cc1[nH]c2ccc(F)cc2c1-c1nc2c3cccnc3c3ncccc3c2[nH]1 | 25.5%
8 | Nc1ccn(C2OC(CO)C(O)C2(F)F)c(=O)n1 (configuration not stated) + Cc1[nH]c2ccc(F)cc2c1-c1nc2c3cccnc3c3ncccc3c2[nH]1 | 4.94%
9 | O=C(NO)c1cnc(N2CCN(S(=O)(=O)c3ccc4ccccc4c3)CC2)nc1 + Cc1[nH]c2ccc(F)cc2c1-c1nc2c3cccnc3c3ncccc3c2[nH]1 | 0.08%
10 | O=c1[nH]cc(F)c(=O)[nH]1 + Cc1[nH]c2ccc(F)cc2c1-c1nc2c3cccnc3c3ncccc3c2[nH]1 | 40.5%

Same assay, conditions: second compound 0.1 µM; first compound 10 µM; hits give low values

Row | SMILES | viability, T/C
11 | C#Cc1c(F)ccc2cc(O)cc(-c3ncc4c(N5CC6CCC(C5)N6)nc(OCC56CCCN5CC(F)C6)nc4c3F)c12 (configuration not stated) + Cc1[nH]c2ccc(F)cc2c1-c1nc2c3cccnc3c3ncccc3c2[nH]1 | 108%
12 | C=CCn1c(=O)c2cnc(Nc3ccc(N4CCN(C)CC4)cc3)nc2n1-c1cccc(C(C)(C)O)n1 + Cc1[nH]c2ccc(F)cc2c1-c1nc2c3cccnc3c3ncccc3c2[nH]1 | 4.08%
13 | CC(C)(O)C1CCC(Nc2ccc3ncc(-c4cccc(C(F)(F)F)c4)n3n2)CC1 (configuration not stated) + Cc1[nH]c2ccc(F)cc2c1-c1nc2c3cccnc3c3ncccc3c2[nH]1 | 61.6%
14 | Nc1ccn(C2OC(CO)C(O)C2(F)F)c(=O)n1 (configuration not stated) + Cc1[nH]c2ccc(F)cc2c1-c1nc2c3cccnc3c3ncccc3c2[nH]1 | 3.89%
15 | O=C(NO)c1cnc(N2CCN(S(=O)(=O)c3ccc4ccccc4c3)CC2)nc1 + Cc1[nH]c2ccc(F)cc2c1-c1nc2c3cccnc3c3ncccc3c2[nH]1 | 0.16%
16 | O=c1[nH]cc(F)c(=O)[nH]1 + Cc1[nH]c2ccc(F)cc2c1-c1nc2c3cccnc3c3ncccc3c2[nH]1 | 31.5%

Same assay, conditions: second compound 0.316 µM; first compound 0.000999 µM; hits give low values

Row | SMILES | viability, T/C
17 | Cc1[nH]c2ccccc2c1CCNCc1ccc(/C=C/C(=O)NO)cc1 + Cc1[nH]c2ccc(F)cc2c1-c1nc2c3cccnc3c3ncccc3c2[nH]1 | 99.5%

Same assay, conditions: second compound 0.316 µM; first compound 0.00316 µM; hits give low values

Row | SMILES | viability, T/C
18 | Cc1[nH]c2ccccc2c1CCNCc1ccc(/C=C/C(=O)NO)cc1 + Cc1[nH]c2ccc(F)cc2c1-c1nc2c3cccnc3c3ncccc3c2[nH]1 | 119%

Same assay, conditions: second compound 0.316 µM; first compound 0.00999 µM; hits give low values

Row | SMILES | viability, T/C
19 | Cc1[nH]c2ccccc2c1CCNCc1ccc(/C=C/C(=O)NO)cc1 + Cc1[nH]c2ccc(F)cc2c1-c1nc2c3cccnc3c3ncccc3c2[nH]1 | 121%

Same assay, conditions: second compound 0.316 µM; first compound 0.0316 µM; hits give low values

Row | SMILES | viability, T/C
20 | C#Cc1c(F)ccc2cc(O)cc(-c3ncc4c(N5CC6CCC(C5)N6)nc(OCC56CCCN5CC(F)C6)nc4c3F)c12 (configuration not stated) + Cc1[nH]c2ccc(F)cc2c1-c1nc2c3cccnc3c3ncccc3c2[nH]1 | 91%
21 | C=CCn1c(=O)c2cnc(Nc3ccc(N4CCN(C)CC4)cc3)nc2n1-c1cccc(C(C)(C)O)n1 + Cc1[nH]c2ccc(F)cc2c1-c1nc2c3cccnc3c3ncccc3c2[nH]1 | 97.2%
22 | CC(C)(O)C1CCC(Nc2ccc3ncc(-c4cccc(C(F)(F)F)c4)n3n2)CC1 (configuration not stated) + Cc1[nH]c2ccc(F)cc2c1-c1nc2c3cccnc3c3ncccc3c2[nH]1 | 106%
23 | Cc1[nH]c2ccccc2c1CCNCc1ccc(/C=C/C(=O)NO)cc1 + Cc1[nH]c2ccc(F)cc2c1-c1nc2c3cccnc3c3ncccc3c2[nH]1 | 92.7%
24 | Nc1ccn(C2OC(CO)C(O)C2(F)F)c(=O)n1 (configuration not stated) + Cc1[nH]c2ccc(F)cc2c1-c1nc2c3cccnc3c3ncccc3c2[nH]1 | 13.8%
25 | O=C(NO)c1cnc(N2CCN(S(=O)(=O)c3ccc4ccccc4c3)CC2)nc1 + Cc1[nH]c2ccc(F)cc2c1-c1nc2c3cccnc3c3ncccc3c2[nH]1 | 101%
26 | O=c1[nH]cc(F)c(=O)[nH]1 + Cc1[nH]c2ccc(F)cc2c1-c1nc2c3cccnc3c3ncccc3c2[nH]1 | 91.1%

Same assay, conditions: second compound 0.316 µM; first compound 0.0999 µM; hits give low values

Row | SMILES | viability, T/C
27 | Cc1[nH]c2ccccc2c1CCNCc1ccc(/C=C/C(=O)NO)cc1 + Cc1[nH]c2ccc(F)cc2c1-c1nc2c3cccnc3c3ncccc3c2[nH]1 | 4.91%

Same assay, conditions: second compound 0.316 µM; first compound 0.1 µM; hits give low values

Row | SMILES | viability, T/C
28 | C#Cc1c(F)ccc2cc(O)cc(-c3ncc4c(N5CC6CCC(C5)N6)nc(OCC56CCCN5CC(F)C6)nc4c3F)c12 (configuration not stated) + Cc1[nH]c2ccc(F)cc2c1-c1nc2c3cccnc3c3ncccc3c2[nH]1 | 96.1%
29 | C=CCn1c(=O)c2cnc(Nc3ccc(N4CCN(C)CC4)cc3)nc2n1-c1cccc(C(C)(C)O)n1 + Cc1[nH]c2ccc(F)cc2c1-c1nc2c3cccnc3c3ncccc3c2[nH]1 | 109%
30 | CC(C)(O)C1CCC(Nc2ccc3ncc(-c4cccc(C(F)(F)F)c4)n3n2)CC1 (configuration not stated) + Cc1[nH]c2ccc(F)cc2c1-c1nc2c3cccnc3c3ncccc3c2[nH]1 | 111%
31 | Nc1ccn(C2OC(CO)C(O)C2(F)F)c(=O)n1 (configuration not stated) + Cc1[nH]c2ccc(F)cc2c1-c1nc2c3cccnc3c3ncccc3c2[nH]1 | 9.71%
32 | O=C(NO)c1cnc(N2CCN(S(=O)(=O)c3ccc4ccccc4c3)CC2)nc1 + Cc1[nH]c2ccc(F)cc2c1-c1nc2c3cccnc3c3ncccc3c2[nH]1 | 128%
33 | O=c1[nH]cc(F)c(=O)[nH]1 + Cc1[nH]c2ccc(F)cc2c1-c1nc2c3cccnc3c3ncccc3c2[nH]1 | 113%

Same assay, conditions: second compound 0.316 µM; first compound 0.316 µM; hits give low values

Row | SMILES | viability, T/C
34 | C#Cc1c(F)ccc2cc(O)cc(-c3ncc4c(N5CC6CCC(C5)N6)nc(OCC56CCCN5CC(F)C6)nc4c3F)c12 (configuration not stated) + Cc1[nH]c2ccc(F)cc2c1-c1nc2c3cccnc3c3ncccc3c2[nH]1 | 99.7%
35 | C=CCn1c(=O)c2cnc(Nc3ccc(N4CCN(C)CC4)cc3)nc2n1-c1cccc(C(C)(C)O)n1 + Cc1[nH]c2ccc(F)cc2c1-c1nc2c3cccnc3c3ncccc3c2[nH]1 | 38.9%
36 | CC(C)(O)C1CCC(Nc2ccc3ncc(-c4cccc(C(F)(F)F)c4)n3n2)CC1 (configuration not stated) + Cc1[nH]c2ccc(F)cc2c1-c1nc2c3cccnc3c3ncccc3c2[nH]1 | 84.5%
37 | Cc1[nH]c2ccccc2c1CCNCc1ccc(/C=C/C(=O)NO)cc1 + Cc1[nH]c2ccc(F)cc2c1-c1nc2c3cccnc3c3ncccc3c2[nH]1 | 0.1%
